Assay results from patent US7932283B2, “Fungicide N-cyclopropyl-sulfonylamide derivatives” (Bayer Cropscience AG, priority 2006, dated 2011).

Key:
[1] = test system: Mycosphaerella graminicola; assay: In vivo test on Mycosphaerella graminicola (wheat leaf spot); conditions: Zymoseptoria tritici, wheat plants (Scipion variety), grading 21 to 28 days after contamination, good (at least 70%) or total protection, read-out: protection (% of efficacy)
Procedure: In vivo Test on Mycosphaerella graminicola (Wheat Leaf Spot)
The active ingredients tested are prepared by homogenisation in a mixture of acetone/tween/DMSO, and then diluted with water to obtain the desired active material concentration.
Wheat plants (Scipion variety), sown on a 50/50 peat soil-pozzolana substrate in starter cups and grown at 12° C., are treated at the 1-leaf stage (10 cm tall) by spraying with the active ingredient prepared as described above.
Plants, used as controls, are treated with the mixture of acetone/tween/DMSO/water not containing the active material.
After 24 hours, the plants are contaminated by spraying them with an aqueous suspension of Mycosphaerella graminicola spores (500 000 spores per ml). The spores are collected from a 7-day-old culture. The contaminated wheat plants are incubated for 72 hours at 18° C. and at 100% relative humidity, and then for 21 to 28 days at 90% relative humidity.
Grading (% of efficacy) is carried out 21 to 28 days after the contamination, in comparison with the control plants.

Puccinia recondita = assay: In vivo test on Puccinia recondita f. sp. tritici (wheat brown rust); conditions: 240 h, wheat plants (Scipion variety), grading 10 days after contamination, good (at least 70%) or total protection
Procedure: In vivo Test on Puccinia reconditef. Sp. tritici (Wheat Brown Rust)
The active ingredients tested are prepared by homogenisation in a mixture of acetone/tween/DMSO, then diluted with water to obtain the desired active material concentration. Wheat plants (Scipion variety) in starter cups, sown on 50/50 peat soil-pozzolana substrate and grown at 12° C., are treated at the 1-leaf stage (10 cm tall) by spraying with the active ingredient prepared as described above. Plants, used as controls, are treated with the mixture of acetone/tween/DMSO/water not containing the active material.
After 24 hours, the plants are contaminated by spraying the leaves with an aqueous suspension of Puccinia recondita spores (100,000 spores per ml). The spores are collected from a 10-day-old contaminated wheat and are suspended in water containing 2.5 ml/of tween 80 10%. The contaminated wheat plants are incubated for 24 hours at 20° C. and at 100% relative humidity, and then for 10 days at 20° C. and at 70% relative humidity. Grading is carried out 10 days after the contamination, in comparison with the control plants.

[2] = logP by HPLC on reversed-phase column (C 18), EEC Directive 79/B31 Annex V.A8, methods A and B; assay type: physicochemical; conditions: reversed-phase HPLC column (C 18)
Procedure: Calibration was carried out using unbranched alkan-2-ones (having 3 to 16 carbon atoms) with known logP values (determination of the logP values by the retention times using linear interpolation between two successive alkanones).

[3] = HPLC reversed-phase C 18, method B: 40° C., 0.1% aqueous formic acid and acetonitrile, linear gradient 10% to 90% acetonitrile
[4] = LogP method B: HPLC reversed-phase C 18, 40° C., 0.1% aqueous formic acid / acetonitrile, linear gradient 10% to 90% acetonitrile

Structure (SMILES) | chromatographic logP [2, 4] | pest or weed control at 500 ppm [1] | pest or weed control at 500 ppm (Puccinia recondita) | further results
Cc1nc(C(=O)N(C2CC2)S(=O)(=O)c2ccc(Oc3ccccc3)cc2)c(C)o1 [Compound 45] |  | ≥ 70% |  | 
Cc1nc(C(=O)N(C2CC2)S(=O)(=O)c2ccc(Oc3ccccc3)cc2)c(C(F)(F)F)o1 [Compound 49] |  | ≥ 70% | ≥ 70% | 
Cn1cc(C(=O)N(C2CC2)S(=O)(=O)c2ccc(Oc3ccccc3)cc2)c(C(F)F)n1 [Compound 249] |  | ≥ 70% |  | 
CCOc1nn(C)cc1C(=O)N(C1CC1)S(=O)(=O)c1ccc(Oc2cccc(C(F)(F)F)c2)cc1 [Compound 264] |  | ≥ 70% | ≥ 70% | 
CCCOc1nn(C)cc1C(=O)N(C1CC1)S(=O)(=O)c1ccc(Oc2ccccc2)cc1 [Compound 281] |  |  | ≥ 70% | 
CCCCOc1ccc(S(=O)(=O)N(C(=O)c2cn(C)nc2OCCC)C2CC2)cc1 [Compound 309] |  |  | ≥ 70% | 
CCCOc1nn(C)cc1C(=O)N(C1CC1)S(=O)(=O)c1ccc(Oc2cccc(C(F)(F)F)c2)cc1 [Compound 318] |  |  | ≥ 70% | 
CCCOc1nn(C)cc1C(=O)N(C1CC1)S(=O)(=O)c1ccc(Oc2ccc(C(F)(F)F)cc2)cc1 [Compound 320] |  |  | ≥ 70% | 
CCCOc1nn(C)cc1C(=O)N(C1CC1)S(=O)(=O)c1ccc(Oc2ccc(Br)cc2)cc1 [Compound 328] |  |  | ≥ 70% | 
Cn1nc(C(F)(F)F)c(C(=O)N(C2CC2)S(=O)(=O)c2cccc(Cl)c2F)c1F [Compound 358] |  | ≥ 70% |  | chromatographic logP [2, 3]: 3.2
Cn1nc(C(F)(F)F)c(C(=O)N(C2CC2)S(=O)(=O)c2ccc(F)c(F)c2F)c1F [Compound 366] |  |  | ≥ 70% | 
CCc1nn(C)c(F)c1C(=O)N(C1CC1)S(=O)(=O)c1ccccc1C(F)(F)F [Compound 377] |  | ≥ 70% |  | chromatographic logP [2, 3]: 2.9
CCc1nn(C)c(F)c1C(=O)N(C1CC1)S(=O)(=O)c1ccc(F)cc1Br [Compound 380] |  |  | ≥ 70% | chromatographic logP [2, 3]: 2.9
CC/C=N/N(C)/C(F)=C/C(=O)N(C1CC1)S(=O)(=O)c1csc(O)c1O [Compound 438] | 4 | ≥ 70% |  | 
CCc1nn(C)c(F)c1C(=O)N(C1CC1)S(=O)(=O)c1cnc(O)c(Br)c1 [Compound 448] | 3.5 |  | ≥ 70% | 
COc1nn(C)cc1C(=O)N(C1CC1)S(=O)(=O)c1ccc2c(c1)CCC(C)(C)O2 [Compound 457] |  | ≥ 70% | ≥ 70% | 
COc1nn(C)cc1C(=O)N(C1CC1)S(=O)(=O)c1ccc(Oc2cccc(N(C)C)c2)c(Cl)c1 [Compound 502] |  | ≥ 70% | ≥ 70% | 
COc1nn(C)cc1C(=O)N(C1CC1)S(=O)(=O)c1ccc(Oc2cccc(C(F)(F)F)c2)cc1Cl [Compound 508] |  | ≥ 70% |  | 
COc1nn(C)cc1C(=O)N(C1CC1)S(=O)(=O)c1ccc(Oc2ccc(Cl)c(Cl)c2)c(Cl)c1 [Compound 513] |  |  | ≥ 70% | 
COc1nn(C)cc1C(=O)N(C1CC1)S(=O)(=O)c1ccc(Oc2cccc(C(F)(F)F)c2F)cc1Cl [Compound 519] |  | ≥ 70% |  | 
CCOc1nn(C)cc1C(=O)N(C1CC1)S(=O)(=O)c1ccc2c(c1)CCC(C)(C)O2 [Compound 524] |  | ≥ 70% | ≥ 70% | 
CCOc1nn(C)cc1C(=O)N(C1CC1)S(=O)(=O)c1ccc(Oc2ccc(OC)c(OC)c2)c(O)c1 [Compound 528] | 3.5 | ≥ 70% | ≥ 70% | 
CCOc1nn(C)cc1C(=O)N(C1CC1)S(=O)(=O)c1ccc(Oc2ccccc2)cc1O [Compound 530] | 3.6 | ≥ 70% |  | 
CCOc1nn(C)cc1C(=O)N(C1CC1)S(=O)(=O)c1ccc(Oc2ccccc2)c(O)c1 [Compound 533] | 3.9 |  | ≥ 70% | 
CCOc1nn(C)cc1C(=O)N(C1CC1)S(=O)(=O)c1ccc(Oc2ccc(O)cc2)cc1O [Compound 535] | 4 | ≥ 70% |  | 
CCc1nn(C)c(F)c1C(=O)N(C1CC1)S(=O)(=O)c1ccc(Oc2cccc(C)c2)cc1 [Compound 578] |  | ≥ 70% |  | 
Cc1cccc(Oc2ccc(S(=O)(=O)N(C(=O)c3c(C)nn(C)c3F)C3CC3)cc2)c1 [Compound 583] |  | ≥ 70% |  | 
Cc1nn(C)c(F)c1C(=O)N(C1(c2ccccc2)CC1)S(=O)(=O)c1cccc(O)c1O [Compound 670] |  |  |  | chromatographic logP ([2]; Method B: 40° C., 0.1% aqueous formic acid and acetonitrile): 4.1
CCOc1nn(C)cc1C(=O)N(C1CC1C)S(=O)(=O)c1ccc(Oc2ccccc2)cc1 (stereo not shown) [Compound 675] |  | ≥ 70% |  | 
Cc1nn(C)c(F)c1C(=O)N(C1CC1c1ccccc1)S(=O)(=O)c1ccccc1O (stereo not shown) [Compound 676] |  |  |  | chromatographic logP ([2]; Method A: 43° C., 0.1% aqueous phosphoric acid, acetonitrile): 3.27

The next lines start with results.

chromatographic logP [2, 4] | Structure (SMILES) | pest or weed control at 500 ppm [1] | pest or weed control at 500 ppm (Puccinia recondita) | further results
4.1 | CCOc1nn(C)cc1C(=O)N(C1CC1)S(=O)(=O)C1C=CC(OC2=CC=C(C(F)(F)F)CC2)=CC1O (stereo not shown) [Compound 538] | ≥ 70% |  | 
4.1 | CCOc1nn(C)cc1C(=O)N(C1CC1)S(=O)(=O)c1ccc(Oc2cccc(N(C)C)c2)c(O)c1 [Compound 539] | ≥ 70% | ≥ 70% | 
4.3 | CCOc1nn(C)cc1C(=O)N(C1CC1)S(=O)(=O)c1ccc(Oc2ccc(O)cc2)c(O)c1 [Compound 545] |  | ≥ 70% | 
4.3 | CCOc1nn(C)cc1C(=O)N(C1CC1)S(=O)(=O)c1ccc(Oc2cccc(C(F)(F)F)c2F)c(O)c1 [Compound 547] | ≥ 70% | ≥ 70% | 
4.4 | CCOc1nn(C)cc1C(=O)N(C1CC1)S(=O)(=O)c1ccc(Oc2ccc(F)c(O)c2)c(O)c1 [Compound 548] |  | ≥ 70% | 
4.4 | CCOc1nn(C)cc1C(=O)N(C1CC1)S(=O)(=O)c1ccc(Oc2ccc(C(F)(F)F)cc2)c(Br)c1 [Compound 550] | ≥ 70% | ≥ 70% | 
4.5 | CCOc1nn(C)cc1C(=O)N(C1CC1)S(=O)(=O)c1ccc(Oc2cccc(Br)c2)c(O)c1 [Compound 551] |  | ≥ 70% | 
4.5 | CCOc1nn(C)cc1C(=O)N(C1CC1)S(=O)(=O)c1ccc(Oc2ccc(Br)cc2)c(O)c1 [Compound 552] | ≥ 70% | ≥ 70% | 
4.5 | CCOc1nn(C)cc1C(=O)N(C1CC1)S(=O)(=O)c1ccc(OC2=CC(OC(F)(F)F)=CCC2)c(O)c1 [Compound 554] |  | ≥ 70% | 
4.7 | CCOc1nn(C)cc1C(=O)N(C1CC1)S(=O)(=O)c1ccc(Oc2ccc(O)cc2O)c(O)c1 [Compound 555] |  | ≥ 70% | 
4.8 | CCOc1nn(C)cc1C(=O)N(C1CC1)S(=O)(=O)c1ccc(Oc2ccc(O)c(C(F)(F)F)c2)c(Cl)c1 [Compound 556] | ≥ 70% | ≥ 70% | 
4.8 | CCOc1nn(C)cc1C(=O)N(C1CC1)S(=O)(=O)c1ccc(Oc2ccc(Cl)c(Cl)c2)c(Cl)c1 [Compound 557] |  | ≥ 70% | 
4.9 | CCOc1nn(C)cc1C(=O)N(C1CC1)S(=O)(=O)c1ccc(Oc2ccc(Br)c(O)c2)c(Cl)c1 [Compound 558] |  | ≥ 70% | 
5 | CCOc1nn(C)cc1C(=O)N(C1CC1)S(=O)(=O)c1ccc(Cc2cc(O)cc(O)c2)c(O)c1 [Compound 559] | ≥ 70% | ≥ 70% | 
